# US20190224279A1, “PHARMACEUTICAL ASSOCIATION COMPRISING A GROWTH FACTOR RECEPTOR AGONIST CONJUGATED TO A BIOACTIVE CARRIER FOR CONVERTING A NEOPLASTIC CELL INTO A NON-NEOPLASTIC CELL AND USES THEREOF” (HISTIDE AG, priority 2015, published 2019)
# Columns and labels:
# [1] = test system: human osteosarcoma cells, MG63; assay: Tumor cell recoding via quantification of pRB (immunofluorescence, ImageJ); type: cell-based
# Protocol: The cells were first fixed for 20 min with 4% paraformaldehyde/PBS at 4° C. After fixation, the cells were permeabilized in PBS containing 1% Triton X-100 for 15 min. Protein immunofluorescent visualization was performed by first treating the cells with 1% (v/v) specific monoclonal antibodies for 1 hour at 37° C. Then the samples were incubated with Alexa Fluor® 568 or 647 (F(ab′)2 fragment of IgG(H+L)) during 30 min at room temperature. The cell nuclei were counterstained in 20 ng/mL DAPI for 10 min at room temperature.
# For this type of quantification the freeware image analysis ImageJ® software was used. The raw image was first converted to an 8-bit file, and then the unsharp mask feature was used (settings 1:0.2) to remove the image background (rolling ball radius 10). After smoothing, the resulting image, which appears similar to the original photomicrograph but with minimal background, was then converted to a binary image by setting a threshold. Threshold values were determined empirically by selecting a setting, which gave the most accurate binary image for a subset of randomly selected photomicrographs. The cell area was determined by manual delineation on raw fluorescent images. Total contact area and mean contact area per cell were calculated by “analyse particules” in ImageJ®. A minimum of 50 cells per condition were analyzed.
# Neoplastic cells (in this example osteosarcoma cells) were cultured on pharmaceutical associations comprising PET as a bioactive carrier and one of GFR-binding compounds of SEQ ID NO: 11 to 14, 24 to 26 and 51 to 63. A rapid (24 hours) decrease of the tumor markers was observed (FIG. 7). The adhesion checkpoint then activates the tumor suppressor proteins p53 and pRB. […]
# [2] = test system: Smad1/5/8 signaling pathway; assay: Growth factor receptor activation: quantification of western blots of phospho-Smad1/5/8; type: cell-based; conditions: human osteosarcoma cells MG63; 400 ng/mL GFR-binding compound; Table 4
# Protocol: After 24 hours of culture, cells were permeabilized (10% SDS, 25 mM NaCl, 10 nM pepstatin and 10 nM leupeptin in distilled water and loading buffer), boiled for 10 minutes and resolved by reducing PAGE (Invitrogen). Proteins were transferred onto nitrocellulose, blocked, and labeled with HRP-conjugated antibodies (Invitrogen). Integrin αv, α5, α3, α4, β1, β, β5 and […] were blotted by treating the nitrocellulose with monoclonal anti-integrin (extracellular domain) αv, α5, α3, α4, β1, β3, β5 and β6 antibodies (Santa Cruz Biotechnology). Phosphor-Smad1/5/8 was blotted by treating the nitrocellulose with monoclonal anti-p-Smad1/5/8 (Santa Cruz Biotechnology). For all of the experiments the western blot was performed in triplicate, along with an additional blot for actin and coomassie blue staining to ensure constant protein load among samples.
Sequence,pRB (%) ([1]; Table 4),pRB (%) ([1]; Table 5),p-Smad1/5/8 (%) [2] [%]
VPQALSPISILFIRLKPHQGHLGEMSNMVVR (Non-cyclic GFR-binding peptide) [SEQ ID NO: 85],24,24,26
TPTKMSPINMLYFNEKNNIIYGKIPGMVVD (Non-cyclic GFR-binding peptide) [SEQ ID NO: 76],15,15,55
VSQDLSAISTLYLKIVRKEPLKNYQEMVEE (Non-cyclic GFR-binding peptide) [SEQ ID NO: 98],9,9,39
VPTHHSAISMLYLELGGDKPLENYQFLQ (Non-cyclic GFR-binding peptide) [SEQ ID NO: 97],9,9,46
TQVQLEPLTLLYYDENEKVIEQLSNDMVVE (Non-cyclic GFR-binding peptide) [SEQ ID NO: 71],19,19,47
VPTKLSPISILYIDKMGVPTYKQYEEGMSVAE (Non-cyclic GFR-binding peptide) [SEQ ID NO: 82],16,16,35
NDEGLECVPTEERPVQVRKIRIKPHQGQKKATVFLQHNK [SEQ ID NO: 64] (Non-cyclic GFR-binding peptide),14,14,36
TPTKMSPINMLYFNEKNNIIYGKIPGM (Non-cyclic GFR-binding peptide) [SEQ ID NO: 94],20,20,41
APTKLEPLTIVYYDDSSNVIEQLSNNMVVR (Non-cyclic GFR-binding peptide) [SEQ ID NO: 88],21,21,32
VPTELSPISILFIRIKPHQGHLGEMSAAVVE (Non-cyclic GFR-binding peptide) [SEQ ID NO: 70],24,24,30
VPARLSPISILYIDAANNVVYKQYEDM (Non-cyclic GFR-binding peptide) [SEQ ID NO: 74],10,10,51
VPEKMSSLSILFFDENKNAALKVYPNMTVE (Non-cyclic GFR-binding peptide) [SEQ ID NO: 92],8,8,52
VPARLSPISILYIDAANNVVYKQYEDMVKS (Non-cyclic GFR-binding peptide) [SEQ ID NO: 93],8,8,44
VPQALNAISTLYFDDSSNVILKKYRNMAVS (Non-cyclic GFR-binding peptide) [SEQ ID NO: 72],11,11,48
APTQLSAISTLYLEIVRKKPLKNYQEMEDH (Non-cyclic GFR-binding peptide) [SEQ ID NO: 78],20,20,58
NDEGLECVPTEERPVQVRKIRIKPHQGQKKATVFLQHNK [SEQ ID NO: 79] (Non-cyclic GFR-binding peptide),21,21,27
VPQALSPISILYIDDMGVPTYKQYEEGMSVAE (Non-cyclic GFR-binding peptide) [SEQ ID NO: 68],7,7,39
APTKLEPLPMVYYEERRNVIEQLSNNMVVR (Non-cyclic GFR-binding peptide) [SEQ ID NO: 86],11,11,34

Sequence,pRB (%) ([1]; Table 4),pRB (%) ([1]; Table 5),p-Smad1/5/8 (%) [2] [%]
VPTHHSAISTLYLELAGEKPLKNYQFLQHNK (Non-cyclic GFR-binding peptide) [SEQ ID NO: 96],7,7,47
VPARLSPISILYIDEMGVPTYKQYEEGMSVAE (Non-cyclic GFR-binding peptide) [SEQ ID NO: 83],9,9,33
VPTEESNITTQIMRIKPHQGQHIGEMSFLQH [SEQ ID NO: 69] (Non-cyclic GFR-binding peptide),23,23,32
ASASPSSVPQDLEPLTILYYVGRTPKVEQLSNMV (Non-cyclic GFR-binding peptide) [SEQ ID NO: 65],18,18,38
ASASPSSVPQDLEPLTILYYVGRTPKVEQLSNMVEDH (Non-cyclic GFR-binding peptide) [SEQ ID NO: 80],17,17,34
VPTKLSPISILYIDDMGVPTYKQYEEGMSVAE (Non-cyclic GFR-binding peptide) [SEQ ID NO: 67],9,9,40
RNVQCRPTQLEPLPIVYYEIVRKKPEQLSNTLE (Non-cyclic GFR-binding peptide) [SEQ ID NO: 95],8,8,29
VPEKMSSLSILFFDENKNVVLKVYPNMAVS (Non-cyclic GFR-binding peptide) [SEQ ID NO: 73],17,17,44
RNVQCRPTQLEPLPIVYYEIVRKKPEQLSNTLEDHLA [SEQ ID NO: 66] (Non-cyclic GFR-binding peptide),21,21,38
VPQALSPINMLYFNEKNQIIYGKIPFLQHNK (Non-cyclic GFR-binding peptide) [SEQ ID NO: 75],8,8,54
VPTEESNITTQIMRIKPHQGQHIGEMSFLQH [SEQ ID NO: 84] (Non-cyclic GFR-binding peptide),10,10,22
VPTELSPISILFIVGGKPKVYKQYENMVVE (Non-cyclic GFR-binding peptide) [SEQ ID NO: 90],17,17,36
APTQLSAISTLYLEIVRKKPLKNYQFLQHNK (Non-cyclic GFR-binding peptide) [SEQ ID NO: 77],14,14,52
RNVQCRPTQLEPLPIVYYEIVRKKPEQLSNTLEDHLA [SEQ ID NO: 81] (Non-cyclic GFR-binding peptide),19,19,41
SRVHHNAISTLYFDESSNVILKKYRGMSVVE (Non-cyclic GFR-binding peptide) [SEQ ID NO: 91],9,9,56
VPTKLSAISTLYLDLAREEPLKNYQEMVVE (Non-cyclic GFR-binding peptide) [SEQ ID NO: 87],16,16,38
VPQALSPISILFIVGRKPKVYKQYEMIVERS (Non-cyclic GFR-binding peptide) [SEQ ID NO: 89],18,18,41
